Each structure is given as a SMILES string.

The test system of this test is lung cancer cell line NCI-H82. Briefly: Cell proliferation assay, NCI-H82 (CELL-TITER GLO). It is filed as cell-based. The following applies: Homo sapiens, NCI-H82, 72 h, NCI-H82 cells, 72 h incubation, cell viability by CELL-TITER GLO, top concentration 1 μM; read-out: EC50, Inhibition of NCl-H82 Cell Proliferation. How it is done:
The activity of a compound was determined in a cell proliferation assay using the lung cancer cell line NCI-H82. Cells (1,000 cells per well) were cultured with RPMI1640 in a 384-well tissue culture plate. After incubated overnight, the compound was added at predetermined concentrations, starting with 1 μM and followed by a 3-fold serial dilution. After the cells were incubated for 72 h, cell viability was determined using a CELL-TITER GLO assay. The CELL-TITER GLO reagent (25 μL) was added to each well and the luminescence was measured by a multimode microplate reader after a brief period of shaking. EC50 values were determined for the compound. The results are summarized in Table 1, wherein A represents a value no greater than 200 nM, B represents a value greater than 200 nM but no greater than 1 μM, C represents a value greater than 1 μM but no greater than […], and D represents a value greater than 5 μM.
As for `C#Cc1nc(NC(=O)N[C@@H](CO)c2ccc(-c3cccc4ncnc(O)c34)cc2)cs1` [Compound A109, (R)-1-(2-Ethynylthiazol-4-yl)-3-(2-hydroxy-1-(4-(4-hydroxyquinazolin-5-yl)phenyl)ethyl)urea], the EC50 was at most 200 nM. In the case of `C#Cc1nc(NC(=O)N[C@@H](CO)c2ccc(-n3ccccc3=O)cc2)cs1` [Compound A132, (R)-1-(2-Ethynylthiazol-4-yl)-3-(2-hydroxy-1-(4-(2-oxopyridin-1(2H)-yl)phenyl)-ethyl)urea] it was at most 200 nM; in that of `C#Cc1nc(NC(=O)N[C@@H](CO)c2ccc(C3CCCCC3)cc2)cs1` [Compound A182, (R)-1-(1-(4-Cyclohexylphenyl)-2-hydroxyethyl)-3-(2-ethynylthiazol-4-yl)urea], at most 200 nM; in that of `C#Cc1nc(NC(=O)N[C@@H](C(=O)NC)c2ccc(-c3cccc(C4(O)CC4)c3)cc2)cs1` [Compound A218, (R)-2-(3-(2-Ethynylthiazol-4-yl)ureido)-2-(3′-(1-hydroxycyclopropyl)-[1,1′-biphenyl]-4-yl)-N-methylacetamide], at most 200 nM.

Consider `C#Cc1nc(NC(=O)NCc2ccc(-c3cc(N4CCCC4)ccn3)cc2)cs1` [Compound A173, 1-(2-Ethynylthiazol-4-yl)-3-(4-(4-(pyrrolidin-1-yl)pyridin-2-yl)benzyl)urea], for which the EC50 lay in the range of 200 to 1000 nM.

Take `C#Cc1nc(NC(=O)N[C@@H](CO)c2ccc(-c3c(C#N)ccc4cccnc34)cc2)cs1` [Compound A52, (R)-1-(1-(4-(7-Cyanoquinolin-8-yl)phenyl)-2-hydroxyethyl)-3-(2-ethynylthiazol-4-yl)urea]: the EC50 is at most 200 nM. For `C#Cc1nc(NC(=O)NCC2CCN(c3ccccc3C#N)CC2)cs1` [Compound A37, 1-((1-(2-Cyanophenyl)piperidin-4-yl)methyl)-3-(2-ethynylthiazol-4-yl)urea], the EC50 is at most 200 nM.

As for `C#Cc1nc(NC(=O)N[C@@H](COC(=O)C(C)(C)C)c2ccc(-c3cccc4ncsc34)cc2)cs1` [Compound A202, (R)-2-(4-(Benzo[d]thiazol-7-yl)phenyl)-2-(3-(2-ethynylthiazol-4-yl)ureido)ethyl pivalate], the EC50 was at most 200 nM. As for `C#Cc1nc(NC(=O)NCc2ccc(N3CCC[C@H]3C#N)cc2)cs1` [Compound A32, (S)-1-(4-(2-Cyanopyrrolidin-1-yl)benzyl)-3-(2-ethynylthiazol-4-yl)urea], the EC50 was at most 200 nM. Next, `C#Cc1nccc(NC(=O)N[C@@H](CO)c2ccc(-c3cccc(N4CCCC4)n3)cc2)n1` [Compound A125, (R)-1-(2-Ethynylpyrimidin-4-yl)-3-(2-hydroxy-1-(4-(6-(pyrrolidin-1-yl)pyridin-2-yl)phenyl)ethyl)urea]: at most 200 nM; `C#Cc1nc(NC(=O)N[C@@H](CO)c2ccc(C3=CCN(C)CC3)cc2)cs1` [Compound A185, (R)-1-(2-Ethynylthiazol-4-yl)-3-(2-hydroxy-1-(4-(1-methyl-1,2,3,6-tetrahydro-pyridin-4-yl)phenyl)ethyl)urea]: 200 to 1000 nM; `C#Cc1nc(NC(=O)NCc2ccc(-c3ccnc(N4CCCC4)c3)cc2)cs1` [Compound A175, 1-(2-Ethynylthiazol-4-yl)-3-(4-(2-(pyrrolidin-1-yl)pyridin-4-yl)benzyl)urea]: at most 200 nM. For `C#Cc1nc(NC(=O)N2CCN(c3ccc(-c4cccc5ncsc45)cc3)C[C@H]2CO)cs1` [Compound B23, (S)-4-(4-(Benzo[d]thiazol-7-yl)phenyl)-N-(2-ethynylthiazol-4-yl)-2-(hydroxy-methyl)piperazine-1-carboxamide], the EC50 was at most 200 nM.

For the compound `C#Cc1nc(NC(=O)N[C@@H](CO)C(=O)N2CCC(c3ccccc3C#N)CC2)cs1` [Compound A147, (S)-1-(1-(4-(2-Cyanophenyl)piperidin-1-yl)-3-hydroxy-1-oxopropan-2-yl)-3-(2-ethynylthiazol-4-yl)urea], the EC50 lay in the range of 200 to 1000 nM. Regarding `C#Cc1nc(NC(=O)N[C@@H](COC(N)=O)c2ccc(-c3cccc(C4(C#N)CC4)n3)cc2)cs1` [Compound A56, (R)-2-(4-(6-(1-Cyanocyclopropyl)pyridin-2-yl)phenyl)-2-(3-(2-ethynylthiazol-4-yl)ureido)ethyl carbamate], the EC50 was at most 200 nM. On to `C#Cc1nc(NC(=O)N[C@@H](CO)c2ccc(-c3cc(F)ccc3C3(C#N)CC3)cn2)cs1` [Compound A77, (R)-1-(1-(5-(2-(1-Cyanocyclopropyl)-5-fluorophenyl)pyridin-2-yl)-2-hydroxyethyl)-3-(2-ethynylthiazol-4-yl)urea], for which the EC50 is at most 200 nM. Consider `C#Cc1nc(NC(=O)N[C@@H](C(=O)NC)c2ccc(-c3cccc4nc[nH]c(=O)c34)cc2)cs1` [Compound A213, (R)-2-(3-(2-Ethynylthiazol-4-yl)ureido)-N-methyl-2-(4-(4-oxo-3,4-dihydro-quinazolin-5-yl)phenyl)acetamide], for which the EC50 was at most 200 nM.

Turning to `C#Cc1nc(NC(=O)N[C@@H](CO)c2ccc(N3CCOCC3)cc2)cs1` [Compound A133, (R)-1-(2-Ethynylthiazol-4-yl)-3-(2-hydroxy-1-(4-morpholinophenyl)ethyl)urea], the EC50 was at most 200 nM. Next, `C#Cc1nc(NC(=O)N[C@@H](CO)c2ccc(N3CCCCC3=O)cc2)cs1` [Compound A131, (R)-1-(2-Ethynylthiazol-4-yl)-3-(2-hydroxy-1-(4-(2-oxopiperidin-1-yl)phenyl)-ethyl)urea]: at most 200 nM; `C#Cc1nc(NC(=O)NCc2ccc(-c3cccc4nc(N5CC(F)(F)C5)nc(O)c34)cc2)cs1` [Compound A171, 1-(4-(2-(3,3-Difluoroazetidin-1-yl)-4-hydroxyquinazolin-5-yl)benzyl)-3-(2-ethynylthiazol-4-yl)urea]: at most 200 nM. In the case of `C#Cc1nc(NC(=O)NCC23CC4CC(CC(C4)C2)C3)cs1` [Compound A38, 1-(Adamantan-1-ylmethyl)-3-(2-ethynylthiazol-4-yl)urea] it was at most 200 nM; in that of `C#Cc1nc(NC(=O)N[C@@H](COC(N)=O)c2ccc(-c3ccccc3C#N)cc2)cs1` [Compound A46, (R)-2-(2′-Cyano-[1,1′-biphenyl]-4-yl)-2-(3-(2-ethynylthiazol-4-yl)ureido)ethyl carbamate], at most 200 nM; in that of `C#Cc1nc(NC(=O)N[C@@H](CO)c2ccc(N3CC(F)(F)C3)cc2)cs1` [Compound A126, (R)-1-(1-(4-(3,3-Difluoroazetidin-1-yl)phenyl)-2-hydroxyethyl)-3-(2-ethynyl-thiazol-4-yl)urea], at most 200 nM.

Regarding `C#Cc1nc(NC(=O)N[C@@H](COC(N)=O)c2ccc(C3CCCc4c3cnn4C)cc2)cs1` (stereo partly drawn) [Compound A232, (2R)-2-(3-(2-Ethynylthiazol-4-yl)ureido)-2-(4-(1-methyl-4,5,6,7-tetrahydro-1H-indazol-4-yl)phenyl)ethyl carbamate], the EC50 is at most 200 nM. On to `C#Cc1nc(NC(=O)NCC2CC=C(c3cccc(C4(C#N)CC4)c3)CC2)cs1` (stereo not drawn) [Compound A239, 1-((3′-(1-Cyanocyclopropyl)-2,3,4,5-tetrahydro-[1,1′-biphenyl]-4-yl)methyl)-3-(2-ethynylthiazol-4-yl)urea], for which the EC50 is at most 200 nM. Next, `C#Cc1nc(NC(=O)N(C)[C@@H](COC(N)=O)c2ccc(-c3cccc(N4CCCC4)n3)cn2)cs1` [Compound A92, (R)-2-(3-(2-Ethynylthiazol-4-yl)-1-methylureido)-2-(6-(pyrrolidin-1-yl)-[2,3′-bipyridin]-6′-yl)ethyl carbamate]: at most 200 nM. With `C#Cc1nc(NC(=O)N[C@@H](COC(N)=O)c2ccc(-c3cccnc3N(C)C)c(Cl)c2)cs1` [Compound A101, (R)-2-(3-Chloro-4-(2-(dimethylamino)pyridin-3-yl)phenyl)-2-(3-(2-ethynyl-thiazol-4-yl)ureido)ethyl carbamate], the EC50 was at most 200 nM.

For `C#Cc1nc(NC(=O)NCc2ccc(-c3cccc(C4(O)CC4)c3)cc2)cs1` [Compound A168, 1-(2-Ethynylthiazol-4-yl)-3-((3′-(1-hydroxycyclopropyl)-[1,1′-biphenyl]-4-yl)methyl)urea], the EC50 is at most 200 nM. As for `C#Cc1nc(NC(=O)N[C@@H](CO)C(=O)N2CCC3(CCCCC3)CC2)cs1` [Compound A157, (S)-1-(2-Ethynylthiazol-4-yl)-3-(3-hydroxy-1-oxo-1-(3-azaspiro[5.5]undecan-3-yl)propan-2-yl)urea], the EC50 is at most 200 nM. On to `C#Cc1ncc(NC(=O)N[C@@H](CO)c2ccc(-c3cccc4ncsc34)cc2)s1` [Compound A118, (R)-1-(1-(4-(Benzo[d]thiazol-7-yl)phenyl)-2-hydroxyethyl)-3-(2-ethynylthiazol-5-yl)urea], for which the EC50 lay in the range of 200 to 1000 nM. In the case of `C#Cc1nc(NC(=O)N[C@@H](CO)c2ccc(N3CCCC3)cc2)cs1` [Compound A128, (R)-1-(2-Ethynylthiazol-4-yl)-3-(2-hydroxy-1-(4-(pyrrolidin-1-yl)phenyl)ethyl)-urea] it was at most 200 nM.

For `C#Cc1nc(NC(=O)N[C@@H](COC(N)=O)c2ccc(-c3cccc4nnsc34)cc2)cs1` [Compound A225, (R)-2-(4-(Benzo[d][1,2,3]thiadiazol-7-yl)phenyl)-2-(3-(2-ethynylthiazol-4-yl)-ureido)ethyl carbamate], the EC50 was at most 200 nM. In the case of `C#Cc1nc(NC(=O)N[C@@H](CS(=O)(=O)NC)c2ccc(-c3cccc4ncsc34)cc2)cs1` [Compound A199, (R)-2-(4-(Benzo[d]thiazol-7-yl)phenyl)-2-(3-(2-ethynylthiazol-4-yl)ureido)-N-methylethane-1-sulfonamide], the EC50 was at most 200 nM.

Values taken from US20240101546A1, “HETEROARYL-ACETYLENES, PHARMACEUTICAL COMPOSITIONS THEREOF, AND THEIR THERAPEUTIC APPLICATIONS” (Eubulus Biotherapeutics Inc., priority 2020, published 2024).
